According to ChEMBL document CHEMBL2380205, “Discovery of a new class of natural product-inspired quinazolinone hybrid as potent antileishmanial agents” (J Med Chem, 2013):

Legend:
[1] = (§1) Selectivity index, ratio of CC50 for mouse J774A1 cells to IC50 for amastigotes of Leishmania donovani MHOM/IN/60/Dd8 infected in mouse J-774A.1 cells; type: functional, J774.A1
Leishmania donovani [2] = assay: Antileishmanial activity against amastigotes of Leishmania donovani MHOM/IN/60/Dd8 infected in mouse J-774A.1 cells after 72 hrs by luciferase reporter gene assay; type: functional, organism-based; conditions: MHOM/IN/60/Dd8, J774.A1, 72 h
[3] = Cytotoxicity against african green monkey Vero cells after 72 hrs by MTT assay; type: cell-based; conditions: chlorocebus sabaeus
Leishmania donovani [4] = assay: Ratio of miltefosine IC50 to compound IC50 for amastigotes of Leishmania donovani MHOM/IN/60/Dd8 infected in mouse J-774A.1 cells; type: functional, J774.A1
Leishmania donovani [5] = assay: Antileishmanial activity against promastigotes of Leishmania donovani MHOM/IN/60/Dd8 after 72 hrs by luciferase reporter gene assay; type: functional, organism-based; conditions: MHOM/IN/60/Dd8, 72 h
[6] = Cytotoxicity against mouse J774A1 cells after 72 hrs by MTT assay; type: cell-based, J774.A1
Leishmania donovani [7] = assay: Antileishmanial activity against amastigotes of Leishmania donovani MHOM/IN/60/Dd8 infected in golden hamster assessed as amastigote count at 50 mg/kg/day, ip administered for 5 days measured on day 7 of post last dose by Giemsa staining; type: functional; conditions: MHOM/IN/60/Dd8, ip, route intraperitoneal
[8] = Lipophilicity, log P of the compound; type: physicochemical; conditions: octanol/water
Leishmania [9] = assay: Antileishmanial activity against amastigotes of Leishmania infected in mouse J-774A.1 cells assessed as decrease in […] production at IC50 after 24 hrs by ELISA relative to control; type: functional, J774.A1
[10] = Mean residence time in Sprague-Dawley rat at 10 mg/kg, po; type: ADME, organism-based; design: dose 10 mg/kg, route oral; conditions: in vivo
[11] = Oral bioavailability in Sprague-Dawley rat at 10 mg/kg; type: ADME, organism-based; conditions: in vivo
Rattus norvegicus [12] = assay: AUC (0 to t) in Sprague-Dawley rat at 10 mg/kg, po; type: ADME, organism-based, Plasma; design: dose 10 mg/kg, route oral; conditions: in vivo
Rattus norvegicus [13] = assay: Clearance in Sprague-Dawley rat at 5 mg/kg, iv; type: ADME, organism-based; design: dose 5 mg/kg, route intravenous; conditions: in vivo
[14] = Elimination half life in Sprague-Dawley rat at 10 mg/kg, po; type: ADME, organism-based; design: dose 10 mg/kg, route oral; conditions: in vivo, read-out: beta t1/2 (converted)
[15] = Cmax in Sprague-Dawley rat at 10 mg/kg, po; type: ADME, organism-based; design: dose 10 mg/kg, route oral; conditions: in vivo
[16] = AUC (0 to t) in Sprague-Dawley rat at 5 mg/kg, iv; type: ADME, organism-based; design: dose 5 mg/kg, route intravenous; conditions: plasma
[17] = Cmax in Sprague-Dawley rat at 5 mg/kg, iv; type: ADME, organism-based; design: dose 5 mg/kg, route intravenous; conditions: in vivo
Rattus norvegicus [18] = assay: Volume of distribution at steady state in Sprague-Dawley rat at 5 mg/kg, iv; type: ADME, organism-based; design: dose 5 mg/kg, route intravenous; conditions: in vivo
Rattus norvegicus [19] = assay: Clearance in Sprague-Dawley rat at 10 mg/kg, po; type: ADME, organism-based; design: dose 10 mg/kg, route oral; conditions: in vivo
Albumin = Albumin (Bos taurus, UniProt P02769); assay: Binding affinity to bovine serum albumin by fluorescence spectrophotometry; type: ADME; conditions: cattle, isolated protein
Chain of Albumin (P02769 whole entry): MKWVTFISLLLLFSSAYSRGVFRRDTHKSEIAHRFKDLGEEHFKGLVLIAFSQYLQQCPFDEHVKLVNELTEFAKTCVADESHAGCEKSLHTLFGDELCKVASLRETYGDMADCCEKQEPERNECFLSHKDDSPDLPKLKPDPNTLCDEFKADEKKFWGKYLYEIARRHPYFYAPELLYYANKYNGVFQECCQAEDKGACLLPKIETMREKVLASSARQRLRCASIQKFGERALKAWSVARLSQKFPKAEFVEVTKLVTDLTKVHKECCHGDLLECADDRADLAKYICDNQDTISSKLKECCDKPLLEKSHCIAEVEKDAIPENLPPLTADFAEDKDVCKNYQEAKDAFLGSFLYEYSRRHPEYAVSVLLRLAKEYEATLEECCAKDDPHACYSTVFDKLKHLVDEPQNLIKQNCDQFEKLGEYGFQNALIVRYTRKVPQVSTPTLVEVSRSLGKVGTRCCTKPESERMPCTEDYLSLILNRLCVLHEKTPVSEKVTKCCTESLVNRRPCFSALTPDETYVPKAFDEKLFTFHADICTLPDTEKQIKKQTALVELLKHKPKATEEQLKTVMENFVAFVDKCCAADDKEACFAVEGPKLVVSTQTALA

Leishmania [20] = assay: Antileishmanial activity against amastigotes of Leishmania infected mouse J774A1 cells assessed as induction of nitric oxide generation after 24 hrs by ELISA (reference value: 4.65 uM); type: functional, J774.A1
[21] = Tmax in Sprague-Dawley rat at 5 mg/kg, iv; type: ADME, organism-based; design: dose 5 mg/kg, route intravenous; conditions: in vivo
Leishmania [22] = assay: Antileishmanial activity against amastigotes of Leishmania infected in mouse J-774A.1 cells assessed as increase in IL-12 production at IC50 after 24 hrs by ELISA relative to control; type: functional, J774.A1
Rattus norvegicus [23] = assay: Elimination half life in Sprague-Dawley rat at 5 mg/kg, iv; type: ADME, organism-based; design: dose 5 mg/kg, route intravenous; conditions: in vivo
Rattus norvegicus [24] = assay: Volume of distribution at steady state in Sprague-Dawley rat at 10 mg/kg, po; type: ADME, organism-based; design: dose 10 mg/kg, route oral; conditions: in vivo
Leishmania [25] = assay: Antileishmanial activity against amastigotes of Leishmania infected in mouse J-774A.1 cells assessed as increase in TNF-alpha production at IC50 after 24 hrs by ELISA relative to control; type: functional, J774.A1
Leishmania [26] = assay: Antileishmanial activity against amastigotes of Leishmania infected in mouse J-774A.1 cells assessed as decrease in IL-10 production at IC50 after 24 hrs by ELISA relative to control; type: functional, J774.A1
Rattus norvegicus [27] = assay: Mean residence time in Sprague-Dawley rat at 5 mg/kg, iv; type: ADME, organism-based; design: dose 5 mg/kg, route intravenous; conditions: in vivo
[28] = Tmax in Sprague-Dawley rat at 10 […], po; type: ADME, organism-based; conditions: in vivo
[29] = Volume of distribution at steady state in Sprague-Dawley rat at 10 mg/kg, iv; type: ADME, organism-based; design: dose 10 mg/kg, route intravenous; conditions: in vivo, read-out: Vdss
[30] = Mean residence time in Sprague-Dawley rat at 10 mg/kg, iv; type: ADME, organism-based; design: dose 10 mg/kg, route intravenous; conditions: in vivo
[31] = Cmax in Sprague-Dawley rat at 10 mg/kg, iv; type: ADME, organism-based; design: dose 10 mg/kg, route intravenous; conditions: in vivo
[32] = AUC (0 to t) in Sprague-Dawley rat at 10 mg/kg, iv; type: ADME, organism-based; design: dose 10 mg/kg, route intravenous; conditions: plasma
[33] = Clearance in Sprague-Dawley rat at 10 mg/kg, iv; type: ADME, organism-based; design: dose 10 mg/kg, route intravenous; conditions: in vivo
[34] = Tmax in Sprague-Dawley rat at 10 […], iv; type: ADME, organism-based; conditions: in vivo
[35] = Elimination half life in Sprague-Dawley rat at 10 mg/kg, iv; type: ADME, organism-based; design: dose 10 mg/kg, route intravenous; conditions: in vivo, read-out: beta t1/2 (converted)
J774.A1 = assay: as §1; type: functional
Leishmania donovani [36] = assay: Antileishmanial activity against amastigotes of Leishmania donovani MHOM/IN/60/Dd8 infected in golden hamster assessed as amastigote count at 40 mg/kg/day, ip administered for 5 days measured on day 7 of post last dose by Giemsa staining; type: functional, organism-based
Leishmania donovani [37] = assay: Antileishmanial activity against amastigotes of Leishmania donovani MHOM/IN/60/Dd8 infected in golden hamster assessed as amastigote count at 30 mg/kg/day, po administered for 5 days measured on day 7 of post last dose by Giemsa staining; type: functional

Compound: CN1CCN(c2ccc(-c3cc(-c4ccc(C5NC(=O)c6ccccc6N5)cc4)nc(N)n3)cc2)CC1 (stereo unspecified)
- Ratio CC50/IC50 [1]: 15.16
- IC50 (Leishmania donovani [2]): 0.65 µM
- CC50 at 72 h [3]: 8.32 µM
- Ratio IC50 (Leishmania donovani [4]): 13
- IC50 (Leishmania donovani [5]): 1.75 µM
- CC50 at 72 h [6]: 10.2 µM

Compound: CC(C)c1ccc(C(C(=O)NC2CCCCC2)N(C(=O)c2cccc(Cl)c2)c2ccc(C3(C)NC(=O)c4ccccc4N3)cc2)cc1 (stereo unspecified)
- inhibition in vivo at 50 mg/kg/day (Leishmania donovani [7]): 48%
- Ratio CC50/IC50 [1]: >84.38
- IC50 (Leishmania donovani [2]): 4.74 µM
- CC50 at 72 h [3]: > 400 µM
- IC50 (Leishmania donovani [5]): > 40 µM
- CC50 at 72 h [6]: > 400 µM
- logP [8]: 8.53

Compound: CC(C)c1ccc(C(Nc2ccc(C3(C)NC(=O)c4ccccc4N3)cc2)c2nnnn2C(C)(C)C)cc1 (stereo unspecified)
- inhibition in vivo at 50 mg/kg/day (Leishmania donovani [7]): 54%
- Ratio CC50/IC50 [1]: >51.54
- IC50 (Leishmania donovani [2]): 7.76 µM
- CC50 at 72 h [3]: > 400 µM
- IC50 (Leishmania donovani [5]): 4.02 µM
- CC50 at 72 h [6]: > 400 µM
- logP [8]: 6.03

Compound: CC1(c2ccc(Nc3nc(N4CCCCC4)nc(N4CCCCC4)n3)cc2)NC(=O)c2ccccc2N1 (stereo unspecified)
- fold change (FC) (Leishmania [9]): 2.8
- inhibition in vivo at 50 mg/kg/day (Leishmania donovani [7]): 73.2%
- Ratio CC50/IC50 [1]: >101.26
- IC50 (Leishmania donovani [2]): 3.95 µM
- MRT [10]: 3.01 h
- bioavailability [11]: 5.75%
- AUCt (Rattus norvegicus [12]): 327 ng·h/mL
- CC50 at 72 h [3]: > 400 µM
- CL (Rattus norvegicus [13]): 29.5 mL/min/kg
- half-life [14]: 1.26 h
- Cmax [15]: 108 ng/mL
- IC50 (Leishmania donovani [5]): 7.05 µM
- AUC(0-t) [16]: 2840 ng·h/mL
- Cmax [17]: 1830 ng/mL
- Vdss (Rattus norvegicus [18]): 5.44 L/kg
- CL (Rattus norvegicus [19]): 29.8 mL/min/kg
- KSV (Albumin): 10 ×10⁴ L/mol
- Kq (Albumin): 10 ×10¹² L/mol/s
- Activity (Leishmania [20]): 15.72 µM
- CC50 at 72 h [6]: > 400 µM
- Tmax [21]: 4.8 min
- fold change (FC) (Leishmania [22]): 6
- beta t1/2 (Rattus norvegicus [23]): 0.84 h
- Vdss (Rattus norvegicus [24]): 5.39 L/kg
- logP [8]: 6.23
- fold change (FC) (Leishmania [25]): >9
- fold change (FC) (Leishmania [26]): >3
- MRT (Rattus norvegicus [27]): 3.07 h
- Tmax [28]: 2 h

Compound: CCCCCNc1nc(NCCCCC)nc(Nc2ccc(C3(C)NC(=O)c4ccccc4N3)cc2)n1 (stereo unspecified)
- inhibition in vivo at 50 mg/kg/day (Leishmania donovani [7]): 43%
- Ratio CC50/IC50 [1]: >165.29
- IC50 (Leishmania donovani [2]): 2.42 µM
- CC50 at 72 h [3]: > 400 µM
- IC50 (Leishmania donovani [5]): 7.46 µM
- CC50 at 72 h [6]: > 400 µM
- logP [8]: 7.57

Compound: CC1(c2ccc(Nc3nc(NCc4ccccc4)nc(NCc4ccccc4)n3)cc2)NC(=O)c2ccccc2N1 (stereo unspecified)
- inhibition in vivo at 50 mg/kg/day (Leishmania donovani [7]): 44.8%
- Ratio CC50/IC50 [1]: >59.52
- IC50 (Leishmania donovani [2]): 6.72 µM
- CC50 at 72 h [3]: 359 µM
- IC50 (Leishmania donovani [5]): 6.38 µM
- CC50 at 72 h [6]: > 400 µM
- logP [8]: 6.49

Compound: CC1(c2ccc(Nc3nc(N4CCc5ccccc5C4)nc(N4CCc5ccccc5C4)n3)cc2)NC(=O)c2ccccc2N1 (stereo unspecified)
- fold change (FC) (Leishmania [9]): >3
- inhibition in vivo at 50 mg/kg/day (Leishmania donovani [7]): 80.9%
- Ratio CC50/IC50 [1]: >91.11
- IC50 (Leishmania donovani [2]): 4.39 µM
- MRT [10]: 8.44 h
- bioavailability [11]: 2.94%
- Vd [29]: 1.95 L/kg
- AUCt (Rattus norvegicus [12]): 716 ng·h/mL
- CC50 at 72 h [3]: > 400 µM
- IC50 (Leishmania donovani [5]): > 40 µM
- MRT [30]: 5.88 h
- Cmax [31]: 63300 ng/mL
- CL (Rattus norvegicus [19]): 6 mL/min/kg
- KSV (Albumin): 6 ×10⁴ L/mol
- Kq (Albumin): 6 ×10¹² L/mol/s
- Activity (Leishmania [20]): 22.58 µM
- CC50 at 72 h [6]: > 400 µM
- AUC(0-t) [32]: 24300 ng·h/mL
- fold change (FC) (Leishmania [22]): >8
- logP [8]: 7.19
- fold change (FC) (Leishmania [25]): 11
- fold change (FC) (Leishmania [26]): 5
- clearance [33]: 5.5 mL/min/kg
- Tmax [34]: 4.8 min
- half-life [35]: 12.8 h

Compound: Sodium stibogluconate
- Ratio CC50/IC50 (J774.A1): > 8.57
- inhibition (Leishmania donovani [36]): 86.9%

Compound: CCCCCCCCCCCCCCCCOP(=O)([O-])OCC[N+](C)(C)C [MILTEFOSINE]
- Ratio CC50/IC50 [1]: 1.48
- IC50 (Leishmania donovani [2]): 8.4 µM
- IC50 (Leishmania donovani [5]): 1.05 µM
- CC50 at 72 h [6]: 12.4 µM
- logP [8]: -0.21
- inhibition in vivo at 30 mg/kg/day (Leishmania donovani [37]): 98.1%
